Measured values from PubChem BioAssay AID248 (DTP/NCI, 2004).
Where “and” joins values, the source holds several entries; their conditions need not be identical. Identical values can stand only once. Inconclusive results and toxic doses are left out. No stated cut-off is given here; in the data, active means T/C of 150% or more; inactive means T/C below 125%.

Test system: L1210 leukemia ip in BDF1 mice, survival T/C
Assay: NCI In Vivo Anticancer Drug Screen. Data for tumor model L1210 Leukemia (intraperitoneal) in B6D2F1 (BDF1) mice
Settings: endpoint: mean survival time, higher = longer survival
Method in brief: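 Antitumor effect is assessed in tumor-bearing animals. Survival in the compound arm is compared with a vehicle-dosed control arm and expressed as their quotient.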

[1] = dose: 100.0 mg/kg/injection, schedule: Q04DX003 (ip), vehicle: saline with Tween-80
[2] = dose: 200.0 mg/kg/injection, schedule: Q04DX003 (ip), vehicle: saline with Tween-80
[3] = dose: 100.0 mg/kg/injection, schedule: Q01DX001 (ip), vehicle: saline
[4] = dose: 100.0 mg/kg/injection, schedule: Q04DX003 (ip), vehicle: saline
[5] = dose: 100.0 mg/kg/injection, schedule: Q01DX009 (ip), vehicle: saline with Tween-80
[6] = dose: 200.0 mg/kg/injection, schedule: Q01DX009 (ip), vehicle: saline with Tween-80
[7] = dose: 400.0 mg/kg/injection, schedule: Q01DX009 (ip), vehicle: saline with Tween-80
[8] = dose: 100.0 mg/kg/injection, schedule: Q01DX009 (ip), vehicle: Klucel (hydroxypropylcellulose) (HPC)
[9] = dose: 200.0 mg/kg/injection, schedule: Q01DX009 (ip), vehicle: Klucel (hydroxypropylcellulose) (HPC)
[10] = dose: 100.0 mg/kg/injection, schedule: Q04DX003 (ip), vehicle: Klucel (hydroxypropylcellulose) (HPC)
[11] = dose: 200.0 mg/kg/injection, schedule: Q04DX003 (ip), vehicle: Klucel (hydroxypropylcellulose) (HPC)
[12] = dose: 100.0 mg/kg/injection, schedule: Q01DX001 (ip), vehicle: Klucel (hydroxypropylcellulose) (HPC)
[13] = dose: 200.0 mg/kg/injection, schedule: Q01DX001 (ip), vehicle: Klucel (hydroxypropylcellulose) (HPC)
[14] = dose: 400.0 mg/kg/injection, schedule: Q04DX003 (ip), vehicle: Klucel (hydroxypropylcellulose) (HPC)
[15] = dose: 100.0 mg/kg/injection, schedule: Q01DX001 (ip), vehicle: carboxymethylcellulose (CMC)
[16] = dose: 400.0 mg/kg/injection, schedule: Q01DX001 (ip), vehicle: carboxymethylcellulose (CMC)

Measured: T/C

CCCCC#CC(=O)OCCC
inactive: [1] 94 % of control | [2] 99 % of control

CNC1(c2ccccc2)C(=O)CC2CCC1C2 (stereo not given)
inactive: dose: 50.0 mg/kg/injection, schedule: Q04DX003 (ip), vehicle: saline 99 % of control | [3] 105 % of control | [4] 100 % of control | dose: 200.0 mg/kg/injection, schedule: Q01DX001 (ip), vehicle: saline 107 % of control

O=C(Nc1ccccc1F)Oc1ccc(C2CCCCC2)cc1
inactive: [5] 104 % of control | [6] 104 % of control | [7] 101 % of control

NC(CC(=O)O)C(=O)OCc1ccccc1 (stereo not given)
inactive: [8] 95 % of control | dose: 100.0 mg/kg/injection, schedule: Q04DX002 (ip), vehicle: Klucel (hydroxypropylcellulose) (HPC) 92 % of control | [9] 95 % of control | dose: 200.0 mg/kg/injection, schedule: Q04DX002 (ip), vehicle: Klucel (hydroxypropylcellulose) (HPC) 103 % of control | dose: 400.0 mg/kg/injection, schedule: Q04DX002 (ip), vehicle: Klucel (hydroxypropylcellulose) (HPC) 95 % of control

CC(C)CCCC(C)C1CCC2C3CC(=O)C45CC4CCC5(C)C3CCC12C (stereo not given)
inactive: dose: 100.0 mg/kg/injection, schedule: Q04DX003 (ip), vehicle: other 97 % of control | dose: 200.0 mg/kg/injection, schedule: Q04DX003 (ip), vehicle: other 102 % of control | dose: 400.0 mg/kg/injection, schedule: Q04DX003 (ip), vehicle: other 108 % of control

COc1ccc(/C=N/n2c(C)cc(C)c(C#N)c2=O)c(OC)c1OC
inactive: [5] 100 % of control | [1] 118 % of control | [6] 91 % of control | [2] 103 % of control | [7] 107 % of control | dose: 400.0 mg/kg/injection, schedule: Q04DX003 (ip), vehicle: saline with Tween-80 106 % of control

CC(O)/C(=N/Nc1ccc([N+](=O)[O-])cc1[N+](=O)[O-])C(=O)O (stereo not given)
inactive: dose: 50.0 mg/kg/injection, schedule: Q01DX009 (ip), vehicle: Klucel (hydroxypropylcellulose) (HPC) 106 % of control | [8] 96 % of control | [10] 91 % of control | [9] 96 % of control | [11] 88 % of control

CSC(N(C)c1ccccc1)=[N+](C)c1ccccc1
inactive: [3] 105 % of control

Cc1nc(Cl)c(Cl)[nH]1
inactive: [5] 97 % of control | [6] 111 % of control

Cc1ccc(N=Cc2ccccc2O)cc1
inactive: dose: 50.0 mg/kg/injection, schedule: Q01DX001 (ip), vehicle: Klucel (hydroxypropylcellulose) (HPC) 93 % of control | [12] 90 % of control | [13] 93 % of control

OC12C3CCCC1CCCC2CCC3 (stereo not given)
inactive: dose: 100.0 mg/kg/injection, schedule: Q01DX009 (ip), vehicle: other 101 % of control | dose: 100.0 mg/kg/injection, schedule: Q01DX009 (ip), vehicle: saline sonified 103 % of control | [5] 110 % of control and 90 % of control | [10] 95 % of control and 106 % of control and 96 % of control | [4] 102 % of control | dose: 200.0 mg/kg/injection, schedule: Q01DX009 (ip), vehicle: other 94 % of control | dose: 200.0 mg/kg/injection, schedule: Q01DX009 (ip), vehicle: saline sonified 103 % of control | [6] 106 % of control and 89 % of control | [11] 108 % of control and 100 % of control and 96 % of control | dose: 200.0 mg/kg/injection, schedule: Q04DX003 (ip), vehicle: saline 102 % of control | dose: 400.0 mg/kg/injection, schedule: Q01DX009 (ip), vehicle: other 92 % of control | dose: 400.0 mg/kg/injection, schedule: Q01DX009 (ip), vehicle: saline sonified 92 % of control | [7] 95 % of control and 92 % of control | [14] 95 % of control and 104 % of control and 114 % of control | dose: 400.0 mg/kg/injection, schedule: Q04DX003 (ip), vehicle: saline 104 % of control

CCCCCCCCCCCCCCCC(CCCCCCCC)CCCCCCCC
inactive: dose: 75.0 mg/kg/injection, schedule: Q01DX001 (ip), vehicle: saline with Tween-80 97 % of control | dose: 150.0 mg/kg/injection, schedule: Q01DX001 (ip), vehicle: saline with Tween-80 110 % of control | dose: 300.0 mg/kg/injection, schedule: Q01DX001 (ip), vehicle: saline with Tween-80 95 % of control

COC1CCCCC1Br (stereo not given)
inactive: [8] 104 % of control | [9] 98 % of control | dose: 400.0 mg/kg/injection, schedule: Q01DX009 (ip), vehicle: Klucel (hydroxypropylcellulose) (HPC) 98 % of control

CCCCN(CCCC)c1ccc(C(=O)O)cc1
inactive: [5] 100 % of control | [1] 100 % of control | [6] 102 % of control | [2] 98 % of control

COc1ccc(C(=O)OCCN(CCOC(=O)c2ccc(OC)cc2)c2c[nH]c(=O)[nH]c2=O)cc1
inactive: dose: 50.0 mg/kg/injection, schedule: Q01DX001 (ip), vehicle: carboxymethylcellulose (CMC) 106 % of control | [15] 93 % of control | dose: 200.0 mg/kg/injection, schedule: Q01DX001 (ip), vehicle: carboxymethylcellulose (CMC) 95 % of control | [16] 93 % of control

COc1ccc(OC)c(CCl)c1
inactive: dose: 75.0 mg/kg/injection, schedule: Q01DX009 (ip), vehicle: Klucel (hydroxypropylcellulose) (HPC) 97 % of control | dose: 150.0 mg/kg/injection, schedule: Q01DX009 (ip), vehicle: Klucel (hydroxypropylcellulose) (HPC) 103 % of control | dose: 300.0 mg/kg/injection, schedule: Q01DX009 (ip), vehicle: Klucel (hydroxypropylcellulose) (HPC) 91 % of control

C[C@@H]1C[C@@]2(C)[C@@H](CC[C@@H]3[C@@H]2CC[C@]2(C)[C@@H](OC4CCCCO4)CC[C@@H]32)CC1=O (stereo not given in full)
inactive: [15] 93 % of control | [16] 88 % of control

c1ccc(C2CC(c3ccccc3)S2)cc1 (stereo not given)
inactive: [10] 100 % of control | [11] 105 % of control | [14] 105 % of control

CC(N)CC12CC3CC(CC(C3)C1)C2 (stereo not given)
inactive: dose: 25.0 mg/kg/injection, schedule: Q04DX002 (ip), vehicle: saline 92 % of control | dose: 50.0 mg/kg/injection, schedule: Q04DX002 (ip), vehicle: saline 95 % of control | dose: 100.0 mg/kg/injection, schedule: Q04DX002 (ip), vehicle: saline 97 % of control

CCCCCCCCOc1ccc(C(c2ccccc2)(c2ccccc2)c2ccccc2)cc1
inactive: [12] 90 % of control | [13] 89 % of control | dose: 400.0 mg/kg/injection, schedule: Q01DX001 (ip), vehicle: Klucel (hydroxypropylcellulose) (HPC) 89 % of control

O=[N+]([O-])c1ccc(I)c(F)c1
inactive: [10] 100 % of control | [11] 100 % of control | [14] 104 % of control
